The values below are quoted from earlier work in publication PMC7395068, “The evolution of strategies to minimise the risk of human drug-induced liver injury (DILI) in drug discovery and development” (Archives of Toxicology, 2020).

Where two headings read alike, the source gives them in different places.

For series [1] the following is noted: cited from earlier work.
The conditions of series [2]: cited from earlier work. This is another data set of the same source.
Series [3] deals with isolated mouse liver mitochondria. The settings on record: In vitro Assay; ref Porceddu 2012; cited from earlier work.
The conditions of series [4]: cited from earlier work. This is another data set of the same source.
Series [5] deals with THLE or HepG2 cells, isolated mitochondria, BSEP. The settings on record: cited from earlier work.
The subject of another series is human hepatocytes. The settings on record: cited from earlier work.
In another series the test system is PHH spheroids. The settings on record: In vitro Assay; ref Vorrink 2018; cited from earlier work.
Series [6] concerns HepG2 cells. The settings on record: In vitro Assay; ref O'Brien 2006; cited from earlier work.
In series [7] the test system is HepG2 cells. The settings on record: In vitro Assay; ref Persson 2013; cited from earlier work.
[8] abbreviates: LTKB DILIrank category, ref Chen 2016.
Where [9] appears, read: binary DILI call, ref Chen 2016.
Where [10] appears, read: FDA drug labelling score, ref Chen 2011.
Where [11] appears, read: binary in vivo human DILI call, ref Chen 2016.
[12] abbreviates: human DILI, LTKB DILIrank category, ref Chen 2016.
Where [13] appears, read: FDA drug labelling score, scale 1-8, ref Chen 2011.
Where [14] appears, read: binary in vivo DILI call given beside the severity category, ref Chen 2016.
Where [15] appears, read: human DILI concern category (LTKB DILIrank), ref Chen 2016.
Where [16] appears, read: score by FDA drug labelling, scale 1-8, ref Chen 2011.

On to `CS(=O)(=O)OCCCCOS(C)(=O)=O` [busulfan], for which, in series [1] (ref Chen 2016), the “DILI +VE (5-8), DILI -VE (-4)” value was “+VE” and the DILI severity category result was “vMost-DILI-Concern”. The “In vivo DILI” value in [2] ([…]) was “+VE”. Moreover, the “In vivo DILI” value in series [2] (ref Porceddu 2012) is on record as “+VE”. Further, in [3], the “in vitro data EC2<=1x Cmax” value was “+VE” and the “in vitro data EC20<=2uM” value was “-VE”. Moreover, the “DILI Score (FDA) (1-8)” value in series [4] (ref Chen 2011) is 8.
For `CCC[C@@]1(CCc2ccccc2)CC(O)=C([C@H](CC)c2cccc(NS(=O)(=O)c3ccc(C(F)(F)F)cn3)c2)C(=O)O1` [tipranavir], in [1] (ref Chen 2016), the “DILI +VE (5-8), DILI -VE (-4)” value is listed as “+VE” and the DILI severity category entry was “vMost-DILI-Concern”. Also, the “In vivo DILI” value in series [2] (ref Aleo 2019) is reported as “+VE”. In addition, the “DILI Score (FDA) (1-8)” value in series [4] (ref Chen 2011) was 8. In addition, in series [5] (In vitro Assay, ref Aleo 2019), the “Partition Hybrid HRM Score” value was “+VE” and the “Ro2 Hybrid HRM Score” value is recorded as “+VE”.
Consider `CCCCCCCCCCC[C@@H](C[C@@H]1OC(=O)[C@H]1CCCCCC)OC(=O)[C@H](CC(C)C)NC=O` [orlistat], for which, in series [1] (ref Chen 2016), the “DILI +VE (5-8), DILI -VE (-4)” value was “+VE” and the DILI severity category result is recorded as “vMost-DILI-Concern”. For the same compound, in series [2] (ref Aleo 2019), the “In vivo DILI” value is given as “+VE”. Also, the “DILI Score (FDA) (1-8)” value in series [4] (ref Chen 2011) is given as 8. Moreover, in [5] (In vitro Assay, ref Aleo 2019), the “Partition Hybrid HRM Score” value is on record as “+VE” and the “Ro2 Hybrid HRM Score” value is recorded as “+VE”.
As to `Cc1cccc(C)c1OCC(C)N` (centres unmarked) [mexiletine], in series [1] (in vivo), the “DILI +VE (5-8), DILI -VE (-4)” value is listed as “+VE” and the DILI severity category entry was “vMost-DILI-Concern”. Besides, the “In vivo DILI” value in series [2] (in vivo) is given as “+VE”. The “Structural based (HCI)” value in the series with human hepatocytes is given as “+VE”. In the series with PHH spheroids, the “hLiMTs ATP <20 x Cmax” value is listed as “+VE (IC20 < 20 × Cmax.tot cut-off)”. In addition, in [4] (in vivo), the “DILI Score (FDA) (1-8)” value is 3.
With `CC(C(=O)O)c1cccc(Oc2ccccc2)c1` (centres unmarked) [fenoprofen], in series [1] (ref Chen 2016), the “DILI +VE (5-8), DILI -VE (-4)” value is recorded as “+VE” and the DILI severity category result is “vMost-DILI-Concern”. For the same compound, the “In vivo DILI” value in series [2] (ref Aleo 2019) is listed as “+VE”. Further, the “DILI Score (FDA) (1-8)” value in series [4] (ref Chen 2011) is 8. In addition, in series [5] (In vitro Assay, ref Aleo 2019), the “Partition Hybrid HRM Score” value is reported as “+VE” and the “Ro2 Hybrid HRM Score” value is “+VE”.
Consider `C[C@]12C=CC(=O)C=C1CC[C@@H]1[C@@H]2[C@@H](O)C[C@@]2(C)[C@H]1CC[C@]2(O)C(=O)CO` [prednisolone], for which, in series [1] (in vivo), the “DILI +VE (5-8), DILI -VE (-4)” value is “+VE” and the DILI severity category result is given as “vLess-DILI-Concern”. Moreover, the “In vivo DILI” value in [2] (in vivo) was “-VE”. For the same compound, the “DILI Score (FDA) (1-8)” value in series [4] (in vivo) is recorded as 3.
For `CCOC(=O)C1=C[C@@H](OC(CC)CC)[C@H](NC(C)=O)[C@@H](N)C1` [oseltamivir], the DILI severity category result in [1] (setting [8]) is recorded as “Ambiguous DILI-concern”. In addition, the “DILI +VE (5-8), DILI -VE (-4)” value in series [1] (setting [9]) is “-VE”. Also, the “DILI Score (FDA) (1-8)” value in series [4] (setting [10]) is reported as 3. Further, the “Partition Hybrid HRM Score, In vitro Assay” value in [5] (Partition hybrid, ref Aleo 2019) was “+VE”. The “Ro2 Hybrid HRM Score, In vitro Assay” value in series [5] (Rule of Two hybrid, ref Aleo 2019) is reported as “-VE”.
Take `C=CC[C@@H]1/C=C(\C)C[C@H](C)C[C@H](OC)[C@H]2O[C@@](O)(C(=O)C(=O)N3CCCC[C@H]3C(=O)O[C@H](/C(C)=C/[C@@H]3CC[C@@H](O)[C@H](OC)C3)[C@H](C)[C@@H](O)CC1=O)[C@H](C)C[C@@H]2OC` [tacrolimus]: in [1] (ref Chen 2016), the “DILI +VE (5-8), DILI -VE (-4)” value was “+VE” and the DILI severity category result is “vLess-DILI-Concern”. The “In vivo DILI” value in series [2] (ref Aleo 2019) is reported as “+VE”. In series [4] (ref Chen 2011), the “DILI Score (FDA) (1-8)” value is given as 5. For the same compound, in series [5] (In vitro Assay, ref Aleo 2019), the “Partition Hybrid HRM Score” value is “-VE” and the “Ro2 Hybrid HRM Score” value is given as “-VE”.
Regarding `CC[C@@H](CO)NCCN[C@@H](CC)CO` [ethambutol], in series [1] (ref Chen 2016), the “DILI +VE (5-8), DILI -VE (-4)” value is “+VE” and the DILI severity category result is on record as “vMost-DILI-Concern”. Besides, in [2] (ref Aleo 2019), the “In vivo DILI” value was “+VE”. Moreover, the “DILI Score (FDA) (1-8)” value in [4] (ref Chen 2011) is listed as 8. In series [5] (In vitro Assay, ref Aleo 2019), the “Partition Hybrid HRM Score” value is on record as “-VE” and the “Ro2 Hybrid HRM Score” value is recorded as “-VE”.
With carboplatin, in [1] (ref Chen 2016), the “DILI +VE (5-8), DILI -VE (-4)” value is given as “+VE” and the DILI severity category entry was “vLess-DILI-Concern”. Besides, the “In vivo DILI” value in series [2] (ref Aleo 2019) is recorded as “+VE”. Also, the “DILI Score (FDA) (1-8)” value in series [4] (ref Chen 2011) is 3. In series [5] (In vitro Assay, ref Aleo 2019), the “Partition Hybrid HRM Score” value is on record as “-VE” and the “Ro2 Hybrid HRM Score” value is listed as “-VE”.
For `CC(=O)O[C@@]12CO[C@@H]1C[C@H](O)[C@@]1(C)C(=O)[C@H](O)C3=C(C)[C@@H](OC(=O)[C@H](O)[C@@H](NC(=O)OC(C)(C)C)c4ccccc4)C[C@@](O)([C@@H](OC(=O)c4ccccc4)[C@H]21)C3(C)C` [docetaxel], the “DILI +VE (5-8), DILI -VE (-4)” value in series [1] (setting [11]) is listed as “+VE”. Besides, the DILI severity category entry in series [1] (setting [12]) is given as “vLess-DILI-Concern”. Moreover, the “DILI Score (FDA) (1-8)” value in [4] (setting [13]) is reported as 8.
Regarding `CN(C)c1ccc(O)c2c1C[C@H]1C[C@H]3[C@H](N(C)C)C(O)=C(C(N)=O)C(=O)[C@@]3(O)C(O)=C1C2=O` [minocycline], in series [1] (in vivo), the “DILI +VE (5-8), DILI -VE (-4)” value is on record as “+VE” and the DILI severity category result is reported as “vMost-DILI-Concern”. Also, the “In vivo DILI” value in [2] (in vivo) is “+VE”. Besides, the “Structural based (HCI)” value in the series on HepG2 cells [6] is recorded as “+VE”. Besides, in the series with HepG2 cells [7], the Cluser analysis result is recorded as “-VE” and the “Structural based (HCI)” value is “-VE”. The “DILI Score (FDA) (1-8)” value in series [4] (in vivo) is 2. Also, in series [5], the “Ro2 Hybrid HRM Score” value is recorded as “+VE”.
In the case of `O=C(O)c1ccc(-n2nc(-c3ccccc3O)nc2-c2ccccc2O)cc1` [deferasirox], the “DILI +VE (5-8), DILI -VE (-4)” value in series [1] (setting [11]) is given as “+VE”. The DILI severity category result in series [1] (setting [12]) is “vMost-DILI-Concern”. In addition, the “DILI Score (FDA) (1-8)” value in series [4] (setting [13]) was 7.
For `C[C@H](Cn1cnc2c(N)ncnc21)OCP(=O)(O)O` [tenofovir], the “DILI +VE (5-8), DILI -VE (-4)” value in series [1] (setting [14]) was “+VE”. The DILI severity category entry in series [1] (setting [15]) is reported as “vLess-DILI-Concern”. The “DILI Score (FDA) (1-8)” value in series [4] (setting [16]) is 8.
As to `CNC(=C[N+](=O)[O-])NCCSCc1csc(CN(C)C)n1` [nizatidine], in [1] (ref Chen 2016), the “DILI +VE (5-8), DILI -VE (-4)” value is recorded as “+VE” and the DILI severity category result is “vLess-DILI-Concern”. For the same compound, the “In vivo DILI” value in series [2] (ref Aleo 2019) was “+VE”. Also, the “In vivo DILI” value in series [2] (ref O'Brien 2006) is on record as “+VE”. In addition, in the series on HepG2 cells [6], the “Structural based (HCI)” value is “+VE (lowest HCI endpoint IC50 (or in the absence of dose–response < 100 µM) < 30 × total human plasma exposure levels (Cmax.tot))”. For the same compound, the “DILI Score (FDA) (1-8)” value in series [4] (ref Chen 2011) is listed as 5. Moreover, in series [5] (In vitro Assay, ref Aleo 2019), the “Partition Hybrid HRM Score” value is recorded as “-VE” and the “Ro2 Hybrid HRM Score” value was “-VE”.
With `CN(C)c1nc(N(C)C)nc(N(C)C)n1` [altretamine], the DILI severity category result in series [1] (setting [8]) was “Ambiguous DILI-concern”. The “DILI +VE (5-8), DILI -VE (-4)” value in series [1] (setting [9]) is recorded as “-VE”. The “DILI Score (FDA) (1-8)” value in series [4] (setting [10]) was 2.
As for `CCc1cccc2c3c([nH]c12)C(CC)(CC(=O)O)OCC3` (centres unmarked) [etodolac], in series [1] (ref Chen 2016), the “DILI +VE (5-8), DILI -VE (-4)” value is on record as “+VE” and the DILI severity category result is listed as “vMost-DILI-Concern”. Besides, the “In vivo DILI” value in series [2] (ref Aleo 2019) was “+VE”. Also, in [4] (ref Chen 2011), the “DILI Score (FDA) (1-8)” value is 8. The “Ro2 Hybrid HRM Score” value in [5] (In vitro Assay, ref Aleo 2019) is on record as “+VE”.
As for `Nc1ccn([C@@H]2O[C@H](CO)[C@@H](O)[C@@H]2O)c(=O)n1` [cytarabine], in series [1] (in vivo), the “DILI +VE (5-8), DILI -VE (-4)” value is “+VE” and the DILI severity category entry is on record as “vMost-DILI-Concern”. Further, the “In vivo DILI” value in [2] (in vivo) is listed as “+VE”. Further, the “DILI Score (FDA) (1-8)” value in [4] (in vivo) was 3.
Take `Nc1nc(O)c2ncn(COC(CO)CO)c2n1` [ganciclovir]: the DILI severity category result in series [1] (setting [8]) is on record as “Ambiguous DILI-concern”. The “DILI +VE (5-8), DILI -VE (-4)” value in [1] (setting [9]) is listed as “-VE”. In [4] (setting [10]), the “DILI Score (FDA) (1-8)” value is 7.
Take `CC(C)(S)[C@@H](N)C(=O)O` [penicillamine]: the “DILI +VE (5-8), DILI -VE (-4)” value in series [1] (setting [14]) is listed as “+VE”. For the same compound, in series [1] (setting [15]), the DILI severity category result is on record as “vLess-DILI-Concern”. The “DILI Score (FDA) (1-8)” value in series [4] (setting [16]) was 3.
